Test results taken from ChEMBL document CHEMBL4476888, “Tosylacetate based compounds and derivatives thereof as phgdh inhibitors” (2018).

Target: T1, D-3-phosphoglycerate dehydrogenase (Homo sapiens, UniProt O43175)
T1 sequence (O43175 whole entry): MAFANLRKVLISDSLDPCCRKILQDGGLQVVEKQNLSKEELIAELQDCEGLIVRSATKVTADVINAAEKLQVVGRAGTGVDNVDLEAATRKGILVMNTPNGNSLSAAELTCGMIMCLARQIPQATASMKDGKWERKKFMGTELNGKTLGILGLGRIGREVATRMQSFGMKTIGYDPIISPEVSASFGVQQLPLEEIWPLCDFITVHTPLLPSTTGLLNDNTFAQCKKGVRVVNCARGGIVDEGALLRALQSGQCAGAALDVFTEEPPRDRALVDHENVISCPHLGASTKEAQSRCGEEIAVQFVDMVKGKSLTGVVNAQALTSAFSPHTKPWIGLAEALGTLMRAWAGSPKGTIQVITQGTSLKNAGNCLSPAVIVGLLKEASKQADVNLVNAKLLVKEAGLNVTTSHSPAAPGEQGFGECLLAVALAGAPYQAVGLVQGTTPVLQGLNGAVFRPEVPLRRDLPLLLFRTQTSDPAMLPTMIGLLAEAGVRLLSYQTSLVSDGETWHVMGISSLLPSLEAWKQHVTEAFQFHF
Assay: Inhibition of N-terminal HIS-tagged and TEV cleavage site containing full length PHGDH (unknown origin) expressed in Escherichia coli assessed as reduction in conversion of 3-Phosphoglycerate and NAD to 3-Phosphohydroxypyruvate and NADH using 250 uM NAD and 500 uM 3-PG incubated for 240 mins by fluorescence based assay

Compared with `Cc1cc(Cl)c2cc(C(=O)N[C@H](C)c3ccc(S(=O)(=O)CC(=O)OCCNC(=O)OC(C)(C)C)cc3)n(C)c2c1`, `COCCOC(=O)CS(=O)(=O)c1ccc([C@@H](CO)NC(=O)c2cc3c(Cl)cc(C)cc3n2C)cc1` is 11-fold lower in IC50: 701 nM for the first, 62 nM for the second. The second is the more potent here.

Going from `Cc1cc(Cl)c2cc(C(=O)N[C@H](CO)c3ccc(S(=O)(=O)CC(=O)OCC4(F)COC4)cc3)n(C)c2c1` to `COC(=O)CS(=O)(=O)c1ccc([C@@H](C)NC(=O)c2cc3c(Cl)cc(C)cc3n2C)nc1`, the IC50 rises from 27 nM to 1130 nM (42-fold). The first is the more potent here.

First: Cc1cc2c(cc(C(=O)N[C@@H](C)c3ccc(S(=O)(=O)CC(=O)O)cc3)n2C)c(Cl)c1Cl
Second: Cc1cc(Cl)c2cc(C(=O)N[C@H](C)c3ccc(S(=O)(=O)C(C)(C)C(=O)OC(C)(C)C)cc3)n(C)c2c1
The IC50 of the first is 33-fold lower: 155 nM for the first, 5050 nM for the second. The first is the more potent here.
